The results in this text go back to patent publication US20230265118A1, “SALT OF CURCUMIN MONOGLUCURONIDE” (THERABIOPHARMA INC., priority 2020, published 2023).

The structures appear in SMILES notation. Where only a bound is given, the exact number is not on record here.

The nature of data set [1]: Stability in water-methanol solution (residual ratio by HPLC). Format: physicochemical. Particulars: for Residual Ratio: dissolved in 15 mL water-methanol (1:1), left at room temperature for 35 days, HPLC; for Half-Life: solution in water-methanol (1:1), room temperature. The procedure:
A curcumin monoglucuronic acid conjugate (3.62 mg) and a sodium salt of the curcumin monoglucuronic acid conjugate (3.44 mg) were each dissolved in 15 mL of water-methanol (1:1). The prepared solution was left at room temperature for 35 days, and a residual ratio was determined by HPLC.

A short description of data set [2]: Solubility in distilled water. It is filed as physicochemical. The conditions noted are these: 100 mg in 1 mL of distilled water.

As for `COc1cc(/C=C/C(=O)CC(=O)/C=C/c2ccc(O[C@@H]3O[C@H](C(=O)[O-])[C@@H](O)[C@H](O)[C@H]3O)c(OC)c2)ccc1O.[Na+]` [sodium(2S,3S,4S,5R,6S)-3,4,5-trihydroxy-6-(4-((1E,6E)-7-(4-hydroxy-3-methoxyphenyl)-3,5-dioxohepta-1,6-dien-1-yl)-2-methoxyphenoxy)tetrahydro-2H-pyran-2-carboxylate], in data set [1], the “Residual Ratio” value amounted to 93.8% and the Half-Life was found to be 378.4 days. For the same molecule, the Solubility in distilled water in data set [2] was greater than 100 mg/mL.

For `COc1cc(/C=C/C(=O)CC(=O)/C=C/c2ccc(O[C@@H]3O[C@H](C(=O)O)[C@@H](O)[C@H](O)[C@H]3O)c(OC)c2)ccc1O` [curcumin monoglucuronic acid conjugate, curcumin monoglucuronide], in data set [1], the “Residual Ratio” value came to 80.8% and the Half-Life is listed as 126.1 days. Further, in data set [2], the “Solubility in distilled water” value is recorded as “hardly dissolved”.
